According to ChEMBL document CHEMBL1125967, “Total synthesis of L-2,2-difluoro-2-deoxy-MYO-inositol 1,4,5-trisphosphate, a potent inhibitor of the enzymes of d-MYO-inositol 1,4,5-trisphosphate metabolism” (Bioorg Med Chem Lett, 1991):

Assays:
[1] = biological target: Inositol 1,4,5-trisphosphate-gated calcium channel ITPR3 (Homo sapiens, UniProt Q14573); assay: Compound was evaluated for its effective dose to inhibit the calcium release as a measure of affinity for Ins(1,4,5)P3 receptor; assay type: functional
Inositol 1,4,5-trisphosphate-gated calcium channel ITPR3, sequence (Q14573 whole entry): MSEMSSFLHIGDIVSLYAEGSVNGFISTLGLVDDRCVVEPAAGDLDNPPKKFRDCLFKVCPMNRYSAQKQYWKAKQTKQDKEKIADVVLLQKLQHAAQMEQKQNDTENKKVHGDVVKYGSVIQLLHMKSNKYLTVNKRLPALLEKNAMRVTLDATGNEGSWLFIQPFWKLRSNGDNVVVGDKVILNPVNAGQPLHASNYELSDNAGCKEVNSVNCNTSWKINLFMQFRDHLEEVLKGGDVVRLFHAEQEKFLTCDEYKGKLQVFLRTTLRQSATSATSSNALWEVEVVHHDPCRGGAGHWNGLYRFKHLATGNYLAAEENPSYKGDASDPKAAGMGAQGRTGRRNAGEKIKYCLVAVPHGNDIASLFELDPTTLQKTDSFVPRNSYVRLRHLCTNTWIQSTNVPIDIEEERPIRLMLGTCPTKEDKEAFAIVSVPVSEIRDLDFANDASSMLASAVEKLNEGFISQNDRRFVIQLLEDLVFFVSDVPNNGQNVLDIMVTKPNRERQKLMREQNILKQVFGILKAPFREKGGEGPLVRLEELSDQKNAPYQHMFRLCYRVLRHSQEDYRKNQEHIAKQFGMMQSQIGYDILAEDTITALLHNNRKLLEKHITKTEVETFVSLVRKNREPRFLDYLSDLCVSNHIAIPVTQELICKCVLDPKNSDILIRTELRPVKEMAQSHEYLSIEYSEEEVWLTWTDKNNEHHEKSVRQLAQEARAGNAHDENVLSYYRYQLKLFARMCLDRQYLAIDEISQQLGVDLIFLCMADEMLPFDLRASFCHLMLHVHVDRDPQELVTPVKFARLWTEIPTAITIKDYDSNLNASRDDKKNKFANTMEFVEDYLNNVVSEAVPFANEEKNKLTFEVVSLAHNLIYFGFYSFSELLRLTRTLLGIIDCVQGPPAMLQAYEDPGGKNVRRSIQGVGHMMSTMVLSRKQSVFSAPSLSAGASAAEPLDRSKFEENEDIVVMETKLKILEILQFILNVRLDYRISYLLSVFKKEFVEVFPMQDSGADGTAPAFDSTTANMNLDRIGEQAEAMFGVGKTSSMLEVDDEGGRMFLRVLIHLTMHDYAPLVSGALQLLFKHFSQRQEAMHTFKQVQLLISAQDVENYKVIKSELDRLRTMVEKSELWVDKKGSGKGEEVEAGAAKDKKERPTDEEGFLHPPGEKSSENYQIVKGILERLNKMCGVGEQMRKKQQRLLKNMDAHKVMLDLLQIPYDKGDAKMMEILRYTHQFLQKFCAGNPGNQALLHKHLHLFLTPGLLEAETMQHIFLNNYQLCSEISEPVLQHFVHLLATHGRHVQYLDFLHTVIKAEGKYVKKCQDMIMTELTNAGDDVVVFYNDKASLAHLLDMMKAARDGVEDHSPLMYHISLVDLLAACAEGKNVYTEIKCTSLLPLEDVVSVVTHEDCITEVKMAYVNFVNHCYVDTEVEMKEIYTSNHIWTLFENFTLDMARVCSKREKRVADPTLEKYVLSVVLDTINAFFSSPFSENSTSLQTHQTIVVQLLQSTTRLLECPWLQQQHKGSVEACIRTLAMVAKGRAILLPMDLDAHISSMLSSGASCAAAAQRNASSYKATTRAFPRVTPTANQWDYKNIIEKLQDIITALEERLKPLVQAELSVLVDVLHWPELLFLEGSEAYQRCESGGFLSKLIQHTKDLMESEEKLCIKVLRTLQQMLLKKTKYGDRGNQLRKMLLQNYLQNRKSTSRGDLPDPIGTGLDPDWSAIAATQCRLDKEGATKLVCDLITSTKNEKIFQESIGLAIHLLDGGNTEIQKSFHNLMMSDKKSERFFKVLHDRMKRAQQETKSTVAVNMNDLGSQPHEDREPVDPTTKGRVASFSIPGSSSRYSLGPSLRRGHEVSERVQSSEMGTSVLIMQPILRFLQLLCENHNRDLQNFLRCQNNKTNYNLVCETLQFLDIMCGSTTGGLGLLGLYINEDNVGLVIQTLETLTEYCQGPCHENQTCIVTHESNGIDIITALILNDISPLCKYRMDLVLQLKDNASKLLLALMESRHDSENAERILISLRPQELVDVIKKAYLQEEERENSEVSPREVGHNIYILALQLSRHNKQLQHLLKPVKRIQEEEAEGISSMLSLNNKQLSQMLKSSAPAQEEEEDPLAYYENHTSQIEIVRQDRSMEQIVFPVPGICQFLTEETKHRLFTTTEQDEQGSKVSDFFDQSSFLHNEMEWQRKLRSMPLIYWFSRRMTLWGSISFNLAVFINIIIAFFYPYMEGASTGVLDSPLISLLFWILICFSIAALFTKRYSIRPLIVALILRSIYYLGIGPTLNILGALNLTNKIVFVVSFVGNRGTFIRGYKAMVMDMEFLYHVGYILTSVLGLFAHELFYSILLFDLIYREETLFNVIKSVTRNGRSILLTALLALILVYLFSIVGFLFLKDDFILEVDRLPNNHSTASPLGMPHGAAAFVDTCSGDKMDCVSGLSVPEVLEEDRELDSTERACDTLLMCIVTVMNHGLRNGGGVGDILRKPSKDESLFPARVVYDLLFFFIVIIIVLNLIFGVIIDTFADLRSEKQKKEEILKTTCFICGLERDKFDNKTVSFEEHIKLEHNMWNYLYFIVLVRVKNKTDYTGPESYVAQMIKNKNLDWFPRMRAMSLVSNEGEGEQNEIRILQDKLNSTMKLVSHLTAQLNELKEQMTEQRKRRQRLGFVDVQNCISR

[2] = biological target: Inositol 1,4,5-trisphosphate receptor (Homo sapiens, UniProt Q14571+Q14573+Q14643); assay: Compound was evaluated for its effective dose to inhibit the calcium release as a measure of affinity for Inositol 1,4,5-trisphosphate receptor; assay type: functional
[3] = biological target: T1, Inositol polyphosphate-5-phosphatase A (Homo sapiens, UniProt Q14642); assay: Compound was evaluated for binding affinity towards Inositol-1,4,5-trisphosphate 5-phosphatase
T1 sequence (Q14642 whole entry): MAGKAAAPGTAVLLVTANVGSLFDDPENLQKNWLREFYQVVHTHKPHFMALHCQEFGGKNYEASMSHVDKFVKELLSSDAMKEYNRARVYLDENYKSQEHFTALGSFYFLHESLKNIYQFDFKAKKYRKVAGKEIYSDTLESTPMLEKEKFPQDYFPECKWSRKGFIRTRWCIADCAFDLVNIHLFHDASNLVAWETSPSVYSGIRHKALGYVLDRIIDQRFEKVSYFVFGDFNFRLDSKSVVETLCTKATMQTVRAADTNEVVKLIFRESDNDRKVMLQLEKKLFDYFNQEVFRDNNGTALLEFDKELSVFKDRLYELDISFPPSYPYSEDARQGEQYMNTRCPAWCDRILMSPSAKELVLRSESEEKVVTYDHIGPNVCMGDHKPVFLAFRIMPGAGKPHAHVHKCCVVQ

[4] = Inhibition of inositol-trisphosphate phosphorylation; set-up: species or system Rattus norvegicus

SMILES | EC50 [1] [µM] | EC50 [2] [µM] | Ki [3] [µM] | Ki [4] [µM]
O=P(O)(O)OC1C(O)C(OP(=O)(O)O)C(F)(F)C(O)C1OP(=O)(O)O (stereo not given) | 0.21 |  |  | 
O=P(O)(O)OC1C(O)C(OP(=O)(O)O)C(F)(F)C(O)C1OP(=O)(O)O (stereo in doubt) |  | 0.41 |  | 
O=P(O)(O)OC1C(O)C(OP(=O)(O)O)C(F)(F)C(O)C1OP(=O)(O)O (stereo in doubt; L-(4b)) |  | 53 | 26 | 11.5
